Source: patent US20130109682A1, “CYCLIC ETHER COMPOUNDS USEFUL AS KINASE INHIBITORS” (NOVARTIS AG, priority 2010, published 2013)

Experiments:
GSK3β = GSK3β (Homo sapiens, UniProt P49841); test: GSK3β ATP depletion assay; type: biochemical; conditions: ATP depletion assay; read-out: GSK3b IC50
Method in brief: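 Kinase activity is read as ATP consumption: luciferase luminescence reports the ATP remaining once roughly half of the 2 μM ATP is used. Reaction mix: 5 nM GSK3β, 10 μM b-CREB peptide, 50 mM Tris pH 7.5, 15 mM MgCl2, 1 mM DTT, 0.1% BSA, 2.5% DMSO. Enzyme and peptide are preincubated 15 min before ATP is added.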

[1] = tested on: KMS11 (human myeloma cell line); test: Cell proliferation assay (CellTiter-Glo), KMS11; type: cell-based; conditions: Homo sapiens, KMS-11; KMS11 cells, cell proliferation; read-out: KMS11-Luc EC50
Method in brief: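 EC50 derived from CellTiter-Glo luminescence after 3-day exposure at 37° C. Compound was diluted to 2× in medium and added to an equal volume of cells. KMS11 myeloma cells were plated on assay day at 2000/well in IMDM with 10% FBS and sodium pyruvate.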

PIM2 = PIM2 (Homo sapiens, UniProt Q9P1W9); test: Pim 2 AlphaScreen assay (high ATP); type: biochemical; conditions: read-out: Pim2 IC50
Protocol: (§1) Pim1, Pim2, Pim3 AlphaScreen Assay Pim 1, Pim 2 & Pim 3 AlphaScreen assays using high ATP (11-125×ATP Km) were used to determine the biochemical activity of the inhibitors. The activity of Pim 1, Pim 2, & Pim 3 is measured using a homogeneous bead based system quantifying the amount of phosphorylated peptide substrate resulting from kinase-catalyzed phosphoryl transfer to a peptide substrate. Compounds to be tested are dissolved in 100% DMSO and directly distributed to a white 384-well plate at […] per well. To start the reaction, 5 μl of 100 nM Bad peptide (Biotin-AGAGRSRHSSYPAGT —OH) and ATP (concentrations described below) in assay buffer (50 mM Hepes, pH=7.5, 5 mM MgCl2, 0.05% BSA, 0.01% Tween-20, 1 mM DTT) is added to each well. This is followed by the addition of 5 μl/well of Pim 1, Pim 2 or Pim 3 kinase in assay buffer (concentrations described below). Final assay concentrations (described below) are in 2.5% DMSO. The reactions are performed for ˜2 hours, then stopped by the addition of 10 μl of 0.75 μg/ml anti-phospho Ser/Thr antibody (Cell Signaling), 10 μg/ml Protein A AlphaScreen beads (Perkin Elmer), and 10 μg/ml streptavidin coated AlphaScreen beads in stop/detection buffer (50 mM EDTA, 95 mM Tris, pH=7.5, 0.01% Tween-20). The stopped reactions are incubated overnight in the dark. The phosphorylated peptide is detected via an […] initiated chemiluminescence/fluorescence cascade using the Envision plate reader (Perkin Elmer).
(§2) IC50, the half maximal inhibitory concentration, represents the concentration of a test compound that is required for 50% inhibition of its target in vitro under the described assay conditions.

PIM1 = PIM1 (Homo sapiens, UniProt P11309); test: Pim 1 AlphaScreen assay (high ATP); type: biochemical; conditions: read-out: Pim1 IC50
Protocol: as §1, §2

PIM3 = PIM3 (Homo sapiens, UniProt Q86V86); test: Pim 3 AlphaScreen assay (high ATP); type: biochemical; conditions: read-out: Pim3 IC50
Protocol: as §1, §2

Chain of PIM1 (P11309 whole entry): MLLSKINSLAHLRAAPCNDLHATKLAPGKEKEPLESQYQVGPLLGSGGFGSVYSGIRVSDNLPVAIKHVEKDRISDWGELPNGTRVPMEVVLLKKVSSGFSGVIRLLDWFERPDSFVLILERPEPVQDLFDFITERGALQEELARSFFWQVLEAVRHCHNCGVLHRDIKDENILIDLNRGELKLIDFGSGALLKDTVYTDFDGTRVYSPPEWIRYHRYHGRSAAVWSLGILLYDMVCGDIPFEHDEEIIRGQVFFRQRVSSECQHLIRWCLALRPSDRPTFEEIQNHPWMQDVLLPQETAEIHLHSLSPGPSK
Chain of GSK3β (P49841 whole entry, species assumed): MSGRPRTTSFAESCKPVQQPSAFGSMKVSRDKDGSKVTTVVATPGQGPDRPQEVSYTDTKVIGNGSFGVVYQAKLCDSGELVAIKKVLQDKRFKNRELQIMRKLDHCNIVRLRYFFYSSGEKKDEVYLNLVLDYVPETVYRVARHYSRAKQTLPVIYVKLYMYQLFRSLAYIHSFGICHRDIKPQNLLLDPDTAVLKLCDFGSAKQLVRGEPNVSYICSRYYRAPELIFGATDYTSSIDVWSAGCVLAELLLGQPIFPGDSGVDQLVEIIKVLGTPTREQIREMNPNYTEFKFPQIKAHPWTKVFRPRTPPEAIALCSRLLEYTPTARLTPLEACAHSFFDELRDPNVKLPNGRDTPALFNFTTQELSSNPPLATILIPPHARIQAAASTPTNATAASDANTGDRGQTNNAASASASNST
Chain of PIM2 (Q9P1W9 whole entry): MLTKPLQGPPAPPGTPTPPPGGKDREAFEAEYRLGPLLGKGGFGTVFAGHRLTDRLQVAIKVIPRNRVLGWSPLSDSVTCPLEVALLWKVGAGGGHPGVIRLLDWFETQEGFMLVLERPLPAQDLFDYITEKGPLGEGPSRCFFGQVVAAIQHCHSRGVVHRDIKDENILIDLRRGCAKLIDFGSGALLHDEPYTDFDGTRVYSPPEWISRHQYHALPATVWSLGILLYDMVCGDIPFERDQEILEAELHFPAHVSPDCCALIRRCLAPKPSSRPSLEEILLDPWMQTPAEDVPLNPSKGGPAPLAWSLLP

| SMILES | IC50 (GSK3β) | EC50 [1] | IC50 (PIM2) | IC50 (PIM1) | IC50 (PIM3) |
| --- | --- | --- | --- | --- | --- |
| C[C@]1(O)[C@H](N)CC(c2ccncc2NC(=O)c2ccc(F)c(-c3c(F)cc(S(C)(=O)=O)cc3F)n2)O[C@@H]1C1CC1 (stereo in doubt) [Example 281, N-(4-((2S,4R,5S,6R)-4-amino-6-cyclopropyl-5-hydroxy-5-methyltetrahydro-2H-pyran-2-yl)pyridin-3-yl)-6-(2,6-difluoro-4-(methylsulfonyl)phenyl)-5-fluoropicolinamide] | 4.25 µM | 1.09 µM | 0.0623 µM | – | – |
| Nc1cc(F)c(-c2c(F)cccc2F)nc1C(=O)Nc1cnccc1[C@H]1C[C@@H](N)[C@@]2(O)CCC[C@H]2O1 [Example 216, 3-amino-N-(4-((2R,4R,4aS,7aR)-4-amino-4a-hydroxyoctahydrocyclopenta[b]pyran-2-yl)pyridin-3-yl)-6-(2,6-difluorophenyl)-5-fluoropicolinamide] | 0.946 µM | 0.53 µM | – | 0.00014 µM | 0.0017 µM |
| C[C@H]1O[C@@H](c2ccncc2NC(=O)c2csc(-c3c(F)cccc3F)n2)C[C@@H](N)[C@]1(C)O [Example 221, N-(4-((2R,4R,5S,6R)-4-amino-5-hydroxy-5,6-dimethyltetrahydro-2H-pyran-2-yl)pyridin-3-yl)-2-(2,6-difluorophenyl)thiazole-4-carboxamide] | 0.0746 µM | 7.72 µM | – | 0.00064 µM | 0.0187 µM |
| C[C@@H]1O[C@H](c2ccncc2NC(=O)c2csc(-c3c(F)cccc3F)n2)C[C@H](N)[C@@]1(C)O [Example 222, N-(4-((2S,4S,5R,6S)-4-amino-5-hydroxy-5,6-dimethyltetrahydro-2H-pyran-2-yl)pyridin-3-yl)-2-(2,6-difluorophenyl)thiazole-4-carboxamide] | 3.06 µM | > 10 µM | – | 0.0103 µM | 0.189 µM |
| CC1(C)C[C@H](N)C[C@@H](c2ccncc2NC(=O)c2ccc(F)c(-c3c(F)cccc3F)n2)O1 [Example 299, N-(4-((2S,4R)-4-amino-6,6-dimethyltetrahydro-2H-pyran-2-yl)pyridin-3-yl)-6-(2,6-difluorophenyl)-5-fluoropicolinamide] | 0.225 µM | 0.14 µM | 0.0064 µM | – | – |
| CC(C)[C@@H]1C[C@H](N)C[C@H](c2ccncc2NC(=O)c2ccc(F)c(-c3c(F)cc(S(C)(=O)=O)cc3F)n2)O1 [Example 302, N-(4-((2R,4S,6S)-4-amino-6-isopropyltetrahydro-2H-pyran-2-yl)pyridin-3-yl)-6-(2,6-difluoro-4-(methylsulfonyl)phenyl)-5-fluoropicolinamide] | 1.58 µM | 1.62 µM | 0.0713 µM | – | – |
| CNC(=O)c1cc(F)c(-c2nc(C(=O)Nc3cnccc3[C@H]3C[C@@H](N)[C@](C)(O)[C@@H](C)O3)ccc2F)c(F)c1 [Example 333, N-(4-((2R,4R,5S,6R)-4-amino-5-hydroxy-5,6-dimethyltetrahydro-2H-pyran-2-yl)pyridin-3-yl)-6-(2,6-difluoro-4-(methylcarbamoyl)phenyl)-5-fluoropicolinamide] | – | 3.76 µM | 0.0273 µM | – | – |
| CC[C@H]1O[C@@H](c2ccncc2NC(=O)c2ccc(F)c(-c3c(F)cc(C(C)(C)O)cc3F)n2)C[C@@H](N)[C@@H]1O [Example 336, N-(4-((2R,4R,5S,6R)-4-amino-6-ethyl-5-hydroxytetrahydro-2H-pyran-2-yl)pyridin-3-yl)-6-(2,6-difluoro-4-(2-hydroxypropan-2-yl)phenyl)-5-fluoropicolinamide] | – | 0.18 µM | 0.0039 µM | – | – |
| CC(=O)Nc1cc(F)c(-c2nc(C(=O)Nc3cnccc3[C@H]3C[C@@H](N)[C@](C)(O)[C@@H](C)O3)ccc2F)c(F)c1 [Example 338, 6-(4-acetamido-2,6-difluorophenyl)-N-(4-((2R,4R,5S,6R)-4-amino-5-hydroxy-5,6-dimethyltetrahydro-2H-pyran-2-yl)pyridin-3-yl)-5-fluoropicolinamide] | – | 0.94 µM | 0.0021 µM | – | – |
| CC(C)C(=O)Nc1cc(F)c(-c2nc(C(=O)Nc3cnccc3[C@H]3C[C@@H](N)[C@](C)(O)[C@@H](C)O3)ccc2F)c(F)c1 [Example 339, N-(4-((2R,4R,5S,6R)-4-amino-5-hydroxy-5,6-dimethyltetrahydro-2H-pyran-2-yl)pyridin-3-yl)-6-(2,6-difluoro-4-isobutyramidophenyl)-5-fluoropicolinamide] | – | 0.23 µM | 0.0035 µM | – | – |

Continued, values first:

| IC50 (GSK3β) | EC50 [1] | IC50 (PIM2) | IC50 (PIM1) | IC50 (PIM3) | SMILES |
| --- | --- | --- | --- | --- | --- |
| 2.84 µM | 0.31 µM | 0.0153 µM | – | – | CC(C)[C@H]1OC(c2ccncc2NC(=O)c2ccc(F)c(-c3c(F)cc(S(C)(=O)=O)cc3F)n2)C[C@@H](N)[C@@H]1O (stereo in doubt) [Example 305, N-(4-((2S,4R,5S,6R)-4-amino-5-hydroxy-6-isopropyltetrahydro-2H-pyran-2-yl)pyridin-3-yl)-6-(2,6-difluoro-4-(methylsulfonyl)phenyl)-5-fluoropicolinamide] |
| 2.25 µM | 0.2 µM | 0.0118 µM | – | – | CC(C)(C)[C@H]1O[C@@H](c2ccncc2NC(=O)c2ccc(F)c(-c3c(F)cc(S(C)(=O)=O)cc3F)n2)C[C@@H](N)[C@@H]1O [Example 280, N-(4-((2R,4R,5S,6R)-4-amino-6-(tert-butyl)-5-hydroxytetrahydro-2H-pyran-2-yl)pyridin-3-yl)-6-(2,6-difluoro-4-(methylsulfonyl)phenyl)-5-fluoropicolinamide] |
| 1.29 µM | 1.17 µM | 0.0449 µM | – | – | C[C@H]1O[C@@H](c2ccncc2NC(=O)c2ccc(F)c(-c3c(F)cc(S(C)(=O)=O)cc3F)n2)C[C@@H](N)[C@]1(C)O [Example 285, N-(4-((2R,4R,5S,6R)-4-amino-5-hydroxy-5,6-dimethyltetrahydro-2H-pyran-2-yl)pyridin-3-yl)-6-(2,6-difluoro-4-(methylsulfonyl)phenyl)-5-fluoropicolinamide] |
| 3.3 µM | 0.69 µM | 0.0115 µM | – | – | CC(C)[C@@H]1C[C@H](N)C[C@H](c2ccncc2NC(=O)c2ccc(F)c(-c3c(F)cccc3F)n2)O1 [Example 300, N-(4-((2R,4S,6S)-4-amino-6-isopropyltetrahydro-2H-pyran-2-yl)pyridin-3-yl)-6-(2,6-difluorophenyl)-5-fluoropicolinamide] |
| – | 0.76 µM | 0.0627 µM | – | – | C[C@H]1O[C@@H](c2ccncc2NC(=O)c2ccc(F)c(-c3c(F)cc(C(=O)N(C)C)cc3F)n2)C[C@@H](N)[C@]1(C)O [Example 334, N-(4-((2R,4R,5S,6R)-4-amino-5-hydroxy-5,6-dimethyltetrahydro-2H-pyran-2-yl)pyridin-3-yl)-6-(4-(dimethylcarbamoyl)-2,6-difluorophenyl)-5-fluoropicolinamide] |
| – | > 10 µM | > 25 µM | – | – | C[C@H]1O[C@@H](c2ccncc2NC(=O)c2ccc(F)c(N3CCS(=O)(=O)CC3)n2)C[C@@H](N)[C@]1(C)O [Example 335, N-(4-((2R,4R,5S,6R)-4-amino-5-hydroxy-5,6-dimethyltetrahydro-2H-pyran-2-yl)pyridin-3-yl)-6-(1,1-dioxidothiomorpholino)-5-fluoropicolinamide] |
| – | 1.35 µM | 0.04 µM | – | – | CC(C)[C@@H]1C[C@H](N)C[C@H](c2ccncc2NC(=O)c2ccc(F)c(-c3c(F)ccc(C#N)c3F)n2)O1 [Example 337, N-(4-((2R,4S,6S)-4-amino-6-isopropyltetrahydro-2H-pyran-2-yl)pyridin-3-yl)-6-(3-cyano-2,6-difluorophenyl)-5-fluoropicolinamide] |
